Data taken from PMC7391959 (ACS Omega, 2020).
Where two headings read alike, the source gives them in different places.

Experiments:
β-glucosidase (almonds) [1] = assay: Glycosidase inhibition assay, β-glucosidase; type: biochemical; conditions: for IC50: pH 6.8, 25 °C, 100 μM = maximum inhibitor concentration tested; for inhibition: at 100 μM inhibitor concentration
Description: (§1) Inhibition assays for glycosidases were accomplished using the methodology reported by Bols and co-workers.[32] The percentage of inhibition was measured by preparing two 1.2 mL samples in PS cuvettes containing 0.1 M phosphate buffer (pH 6.8 or 5.6 for mannosidases) and the corresponding o- or p-nitrophenyl-glycopyranoside at a concentration equal to the expected value of KM: [S] = 0.25 mM for α-glucosidase, 4.0 mM for β-glucosidase; 0.60 mM for α-galactosidase, 0.51 mM for β-galactosidase (E. coli), 1.5 mM for β-galactosidase (A. oryzae), 0.90 mM for α-mannosidase, and 0.58 mM for β-mannosidase. DMSO (control) or inhibitor solution (DMSO) plus water was added up to a constant volume of 1.14 mL. Screenings were conducted using a 100 μM final inhibitor concentration.
(§2) Reactions were started by adding 60 μL of properly diluted enzyme solution at 25 ± 0.1 °C or 35 ± 0.1 °C (for mannosidases), and the formation of the corresponding o- or p-nitrophenolate was monitored for 125 s by measuring the increase in absorbance at 400 nm (glucosidases and α-galactosidase) or 420 nm (β-galactosidases) for 125 s. For α- and β-mannosidases, an aliquot (200 μL) was taken every 60 s and added to a 1 M Na2CO3 solution (1.8 mL), and the absorbance was measured at 400 nm over a period of 4 min.
(§3) Initial rates (slopes of the plots Abs vs t) were used for calculating %I, according to the following expression: [drawing 1] where v0 is the reaction rate for the enzyme solution and v is the reaction rate for the reactions incorporating an inhibitor.
(§4) DMSO concentration was maintained at 5% (v/v) of the total assay mixture for glycosidases.
(§5) The mode of inhibition was determined using the Cornish-Bowden method,[33] which involves the use of two different plots: 1/v vs [I] (Dixon plot) and [S]/v vs [I]. For the calculation of kinetic parameters (KM, Vmax), a nonlinear regression analysis (least-squares fit) was used.

[2] = molecular target: T1, β-galactosidase (A. oryzae) (Aspergillus oryzae, UniProt Q2UCU3); assay: Glycosidase inhibition assay, β-galactosidase (A. oryzae); type: biochemical; conditions: at 100 μM inhibitor concentration
T1 construct: purchased
T1 sequence (Q2UCU3 19-1005): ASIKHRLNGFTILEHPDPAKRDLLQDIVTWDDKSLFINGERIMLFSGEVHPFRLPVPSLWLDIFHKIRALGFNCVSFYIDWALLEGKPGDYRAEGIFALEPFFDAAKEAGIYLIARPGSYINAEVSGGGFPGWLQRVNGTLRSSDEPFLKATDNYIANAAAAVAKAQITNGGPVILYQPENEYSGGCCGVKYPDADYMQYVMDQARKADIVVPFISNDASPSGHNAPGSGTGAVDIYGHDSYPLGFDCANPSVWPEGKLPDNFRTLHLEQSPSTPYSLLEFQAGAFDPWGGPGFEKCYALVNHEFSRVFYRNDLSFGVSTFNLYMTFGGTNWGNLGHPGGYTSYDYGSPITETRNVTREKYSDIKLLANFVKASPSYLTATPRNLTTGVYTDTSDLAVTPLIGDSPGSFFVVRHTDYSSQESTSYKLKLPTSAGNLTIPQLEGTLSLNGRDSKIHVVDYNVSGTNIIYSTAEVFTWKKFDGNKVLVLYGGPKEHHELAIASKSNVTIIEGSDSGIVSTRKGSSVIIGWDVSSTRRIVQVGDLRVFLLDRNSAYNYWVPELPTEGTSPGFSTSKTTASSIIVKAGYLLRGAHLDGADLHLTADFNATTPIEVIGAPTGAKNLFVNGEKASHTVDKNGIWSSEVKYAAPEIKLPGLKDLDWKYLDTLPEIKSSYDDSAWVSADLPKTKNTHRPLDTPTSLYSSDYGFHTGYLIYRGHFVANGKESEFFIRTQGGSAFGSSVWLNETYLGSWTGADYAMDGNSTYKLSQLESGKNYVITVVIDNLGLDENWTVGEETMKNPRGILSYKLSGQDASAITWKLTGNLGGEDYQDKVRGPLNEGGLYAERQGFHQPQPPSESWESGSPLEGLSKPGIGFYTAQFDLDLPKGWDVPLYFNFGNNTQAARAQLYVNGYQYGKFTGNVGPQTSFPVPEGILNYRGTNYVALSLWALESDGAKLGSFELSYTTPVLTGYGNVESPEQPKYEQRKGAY
Description: as §1, §2, §3, §4, §5

[3] = molecular target: T2, β-galactosidase (E. coli) (Escherichia coli, UniProt P00722); assay: Glycosidase inhibition assay, β-galactosidase (E. coli); type: biochemical; conditions: at 100 μM inhibitor concentration
T2 construct: purchased
Description: as §1, §2, §3, §4, §5

[4] = molecular target: α-glucosidase (S. cerevisiae); assay: Glycosidase inhibition assay, α-glucosidase; type: biochemical, Saccharomyces cerevisiae; conditions: for IC50: 100 μM = maximum inhibitor concentration tested
Description: as §1, §2, §3, §4, §5

[5] = molecular target: T3, α-galactosidase (green coffee beans) (Coffea arabica, UniProt Q42656); assay: Glycosidase inhibition assay, α-galactosidase; type: biochemical; conditions: at 100 μM inhibitor concentration
T3 construct: purchased
Description: as §1, §2, §3, §4, §5

[6] = molecular target: T4, α-mannosidase (jack beans) (Canavalia ensiformis, UniProt C0HJB3); assay: Glycosidase inhibition assay, α-mannosidase; type: biochemical; conditions: for mode of inhibition: Cornish-Bowden method; for Ki: pH 5.6, 35 °C, competitive inhibition
T4 construct: purchased
T4 sequence (C0HJB3 1-981): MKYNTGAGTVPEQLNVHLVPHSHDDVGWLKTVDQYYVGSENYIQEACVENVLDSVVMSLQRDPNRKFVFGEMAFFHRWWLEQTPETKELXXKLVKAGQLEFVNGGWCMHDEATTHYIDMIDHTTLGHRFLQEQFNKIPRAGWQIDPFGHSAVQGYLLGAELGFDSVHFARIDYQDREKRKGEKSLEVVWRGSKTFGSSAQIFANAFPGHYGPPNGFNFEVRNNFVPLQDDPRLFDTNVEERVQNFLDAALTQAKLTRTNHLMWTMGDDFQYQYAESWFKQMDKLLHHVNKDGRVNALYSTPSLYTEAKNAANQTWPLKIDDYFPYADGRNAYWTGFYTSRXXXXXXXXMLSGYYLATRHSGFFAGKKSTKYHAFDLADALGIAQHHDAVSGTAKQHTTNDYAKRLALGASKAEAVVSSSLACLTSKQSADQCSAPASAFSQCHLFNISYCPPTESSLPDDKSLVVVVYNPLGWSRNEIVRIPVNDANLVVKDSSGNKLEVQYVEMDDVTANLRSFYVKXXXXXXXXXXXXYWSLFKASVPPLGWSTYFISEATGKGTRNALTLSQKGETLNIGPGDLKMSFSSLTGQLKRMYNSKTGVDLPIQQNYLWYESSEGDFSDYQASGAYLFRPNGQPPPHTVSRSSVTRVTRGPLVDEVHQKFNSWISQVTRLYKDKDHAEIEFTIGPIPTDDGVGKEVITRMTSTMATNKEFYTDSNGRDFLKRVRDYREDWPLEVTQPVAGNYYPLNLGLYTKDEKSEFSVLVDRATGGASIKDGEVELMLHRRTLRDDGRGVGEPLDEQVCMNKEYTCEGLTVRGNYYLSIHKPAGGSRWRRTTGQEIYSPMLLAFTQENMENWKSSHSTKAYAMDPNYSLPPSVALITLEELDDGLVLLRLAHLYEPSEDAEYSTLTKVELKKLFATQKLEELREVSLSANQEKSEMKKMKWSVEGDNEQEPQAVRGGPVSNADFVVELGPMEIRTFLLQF
Description: as §1, §2, §3, §4, §5

[7] = tested on: β-mannosidase (H. pomatia); assay: Glycosidase inhibition assay, β-mannosidase; type: biochemical, Helix pomatia; conditions: at 100 μM inhibitor concentration
Description: as §1, §2, §3, §4, §5

β-glucosidase (almonds) [8] = conditions: cited from earlier work
[9] = molecular target: T3, α-galactosidase (green coffee beans); design: method as in PMID 21548609; conditions: cited from earlier work
[10] = molecular target: T1, β-galactosidase (A. oryzae); design: method as in PMID 21548609; conditions: cited from earlier work
[11] = molecular target: T2, β-galactosidase (E. coli); conditions: cited from earlier work

T2 sequence (P00722 2-1024): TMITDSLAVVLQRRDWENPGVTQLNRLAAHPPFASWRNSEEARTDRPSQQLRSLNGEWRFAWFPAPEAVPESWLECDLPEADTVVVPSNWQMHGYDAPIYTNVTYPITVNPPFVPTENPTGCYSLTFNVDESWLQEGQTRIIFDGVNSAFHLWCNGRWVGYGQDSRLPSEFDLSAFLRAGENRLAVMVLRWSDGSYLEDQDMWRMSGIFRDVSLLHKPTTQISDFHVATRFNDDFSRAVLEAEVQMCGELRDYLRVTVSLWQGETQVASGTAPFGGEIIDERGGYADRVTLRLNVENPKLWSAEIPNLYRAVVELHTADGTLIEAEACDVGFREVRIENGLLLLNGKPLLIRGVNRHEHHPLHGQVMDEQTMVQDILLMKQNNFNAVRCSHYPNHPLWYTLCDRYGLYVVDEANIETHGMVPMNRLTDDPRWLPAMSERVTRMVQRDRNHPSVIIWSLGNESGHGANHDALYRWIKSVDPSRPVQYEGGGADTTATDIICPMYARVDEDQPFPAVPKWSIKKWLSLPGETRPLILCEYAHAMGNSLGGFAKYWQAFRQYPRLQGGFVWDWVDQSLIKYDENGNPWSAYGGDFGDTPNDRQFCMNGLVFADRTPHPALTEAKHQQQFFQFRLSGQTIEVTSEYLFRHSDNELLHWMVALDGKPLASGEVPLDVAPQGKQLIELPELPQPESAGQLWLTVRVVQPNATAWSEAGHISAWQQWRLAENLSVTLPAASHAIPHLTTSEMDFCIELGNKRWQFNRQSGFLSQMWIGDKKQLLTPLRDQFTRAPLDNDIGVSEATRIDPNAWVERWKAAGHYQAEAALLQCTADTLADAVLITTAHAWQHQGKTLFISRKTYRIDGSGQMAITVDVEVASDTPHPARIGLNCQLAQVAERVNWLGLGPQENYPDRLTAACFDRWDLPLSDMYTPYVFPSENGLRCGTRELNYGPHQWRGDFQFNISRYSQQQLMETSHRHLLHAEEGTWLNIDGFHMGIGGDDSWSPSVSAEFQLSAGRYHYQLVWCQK
T3 sequence (Q42656 16-378): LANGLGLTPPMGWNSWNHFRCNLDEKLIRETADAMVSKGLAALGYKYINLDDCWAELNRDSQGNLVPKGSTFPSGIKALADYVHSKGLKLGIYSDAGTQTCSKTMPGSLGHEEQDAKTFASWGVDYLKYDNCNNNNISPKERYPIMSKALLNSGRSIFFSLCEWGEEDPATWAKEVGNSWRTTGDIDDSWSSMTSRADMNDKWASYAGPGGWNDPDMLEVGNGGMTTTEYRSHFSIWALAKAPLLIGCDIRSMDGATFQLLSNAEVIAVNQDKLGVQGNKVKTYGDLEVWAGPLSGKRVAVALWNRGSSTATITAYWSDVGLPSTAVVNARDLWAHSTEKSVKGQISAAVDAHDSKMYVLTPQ

Compound | IC50 (β-glucosidase (almonds) [1]) | inhibition [2] | inhibition [3] | IC50 ([4]; pH 6.8, 25 °C) | inhibition (β-glucosidase (almonds) [1]) | inhibition [5] | inhibition ([6]; at 100 μM inhibitor concentration) | inhibition [7] | mode of inhibition [6] | fold impairment in the activity against α-mannosidase ([6]; N-ethyl 5Cl compared with 4Cl) | Ki [6] | Ki (β-glucosidase (almonds) [8]; source of β-glucosidase not given) | Ki (β-glucosidase (almonds) [8]) | inhibition [9] | Ki [10] | inhibition [11] | mode of inhibition ([4]; Cornish-Bowden method) | Ki ([4]; pH 6.8, 25 °C)
OC[C@H]1NC[C@H](O)[C@@H](O)[C@@H]1O [DNJ, 1-deoxynojirimycin, reference compound] | […] | N.I. ^b | N.I. ^b |  |  |  |  |  |  |  |  |  |  |  |  |  |  | 
Cl.NN1C(=O)[C@@H](O)[C@H](O)[C@H]1CO [6HCl, (3S,4R,5R)-1-Amino-3,4-dihydroxy-5-(hydroxymethyl)-2-pyrrolidinone Hydrochloride] |  | N.I. ^b | N.I. ^b | > 100 µM | N.I. ^b | N.I. ^b | N.I. ^b | N.I. ^b |  |  |  |  |  |  |  |  |  | 
CCNN1C(=N)[C@@H](O)[C@H](O)[C@H]1CO.Cl [5Cl, (2R,3R,4R)-1-(Ethylamino)-3,4-dihydroxy-2-(hydroxymethyl)-5-iminopyrrolidine Hydrochloride] |  | N.I. ^b | N.I. ^b | > 100 µM | N.I. ^b | N.I. ^b |  | N.I. ^b | competitive | roughly 6 fold | 1.4 µM |  |  |  |  |  |  | 
OC[C@H]1CNC[C@@H](O)[C@@H]1O [compound 1, isofagomine, reference compound] | 0.48 µM | N.I. ^b | N.I. ^b | 32 µM |  | N.I. ^b |  |  |  |  |  | 0.11 µM |  |  |  |  |  | 
N=C1NC[C@H](CO)[C@@H](O)[C@@H]1O [compound 2, isofagomidine] |  |  |  |  |  |  |  |  |  |  |  |  | > 210 µM | N.I. ^d | 210 µM | N.I. ^d |  | 
Cl.N=C1[C@@H](O)[C@H](O)[C@@H](CO)N1N [4Cl, (2R,3R,4R)-1-Amino-3,4-dihydroxy-2-(hydroxymethyl)-5-iminopyrrolidine Hydrochloride] | > 100 µM | N.I. ^b | N.I. ^b | 6.6 µM |  | N.I. ^b |  | N.I. ^b | competitive |  | 0.23 µM |  |  |  |  |  | competitive | 5 µM
